Data: US10363239B2, “Method for inhibiting growth of cancer cells” (Pain Therapeutics, Inc., priority 2013, dated 2019)
Like-named read-outs stand apart in the source and are kept apart here.

Tests used:
mu opiate receptor (MOR) = assay: MOR agonist activity using [35S]GTPγS binding assay in striatal membranes; assay type: biochemical; details: for MOR agonist activity ([35S]GTPγS binding), FLNA-Binding Compound as Agonist 1 μM + BFNA: 1 μM compound + 1 μM β-funaltrexamine
Method in brief: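 Striatal membranes (200 μg) were preincubated 5 min at 30 °C in HEPES pH 7.5 with 100 mM NaCl, 1 mM MgCl2 and 0.5 nM [35S]GTPγS, then 5 min more with 0.1–10 μM compound. Gαo was immunoprecipitated and bound radioactivity counted by scintillation.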

[1] = biological target: FLNA pentapeptide of SEQ ID NO: 1 (Bn-VAKGL) (Homo sapiens, UniProt P21333); assay: FITC-NLX-based FLNA screening assay (inhibition of FITC-naloxone binding to Bn-VAKGL on streptavidin plates); details: 10 nM FITC-NLX
[2] = 0.1 μM compound relative to DAMGO
[3] = 1 μM compound + BFNA relative to DAMGO + BFNA
[4] = 1 μM compound relative to DAMGO
[5] = read-out: Percent Binding Inhibition, FLNA-binding compound 0.01 μM
[6] = read-out: Percent Binding Inhibition, FLNA-binding compound 0.1 μM
[7] = read-out: Percent Binding Inhibition, FLNA-binding compound 1 μM
[8] = Series C-1, 0.1 μM compound, relative to DAMGO
[9] = Series C-1, 0.1 μM compound, [35S]GTPγS binding to Gαo, striatal membranes
[10] = Series C-1, 1 μM compound + 1 μM β-FNA
[11] = Series C-1, 1 μM compound + β-FNA, relative to DAMGO + BFNA
[12] = Series C-1, 1 μM compound, relative to DAMGO
[13] = Series C-1, 1 μM compound, [35S]GTPγS binding to Gαo, striatal membranes
[14] = FLNA-binding compound 0.01 μM, read-out: Percent Binding Inhibition
[15] = FLNA-binding compound 0.1 μM, read-out: Percent Binding Inhibition
[16] = FLNA-binding compound 1 μM, read-out: Percent Binding Inhibition
[17] = Series C-2, 0.1 μM compound, relative to DAMGO
[18] = Series C-2, 0.1 μM compound, [35S]GTPγS binding to Gαo, striatal membranes
[19] = Series C-2, 1 μM compound + 1 μM β-FNA
[20] = Series C-2, 1 μM compound + β-FNA, relative to DAMGO + BFNA
[21] = Series C-2, 1 μM compound, relative to DAMGO
[22] = Series C-2, 1 μM compound, [35S]GTPγS binding to Gαo, striatal membranes
[23] = Series B, 0.1 μM compound, relative to DAMGO
[24] = Series B, 0.1 μM compound, [35S]GTPγS binding to Gαo, striatal membranes
[25] = Series B, 1 μM compound + 1 μM β-FNA
[26] = Series B, 1 μM compound + β-FNA, relative to DAMGO + BFNA
[27] = Series B, 1 μM compound, relative to DAMGO
[28] = Series B, 1 μM compound, [35S]GTPγS binding to Gαo, striatal membranes

Compound	MOR agonist activity ([35S]GTPγS binding), FLNA-Binding Compound as Agonist 0.1 μM (mu opiate receptor (MOR); 0.1 μM compound)	% DAMGO (0.1 μM) (mu opiate receptor (MOR); [2])	MOR agonist activity ([35S]GTPγS binding), FLNA-Binding Compound as Agonist 1 μM (mu opiate receptor (MOR); 1 μM compound)	MOR agonist activity ([35S]GTPγS binding), FLNA-Binding Compound as Agonist 1 μM + BFNA (mu opiate receptor (MOR))	% DAMGO + BFNA (mu opiate receptor (MOR); [3])	% DAMGO (1 μM) (mu opiate receptor (MOR); [4])	inhibition at 0.01 µM [1, 5]	inhibition at 0.1 µM [1, 6]	inhibition at 1 µM [1, 7]	% DAMGO (0.1 μM) (mu opiate receptor (MOR); [8])	Concentration of FLNA-Binding Compound as Agonist 0.1 μM (mu opiate receptor (MOR); [9])	Concentration of FLNA-Binding Compound as Agonist 1 μM + BFNA (mu opiate receptor (MOR); [10])	% DAMGO + BFNA (mu opiate receptor (MOR); [11])	% DAMGO (1 μM) (mu opiate receptor (MOR); [12])	Concentration of FLNA-Binding Compound as Agonist 1 μM (mu opiate receptor (MOR); [13])	other results
CCN(CC)CC(O)COC1CC(C)CCC1C(C)C (stereo not drawn) [Compound A0032]	226.9%	115.6%	257.8%	133.0%	180.0%	93.4%	43%	50.3%	54.5%	–	–	–	–	–	–	–
N#Cc1ccc(S(=O)(=O)N2CCC3(CC2)OCCN3S(=O)(=O)c2ccc(C#N)cc2)cc1 [Compound C0008]	–	–	–	–	–	–	–	–	–	41.4%	71.2%	2.8%	4.4%	72.9%	201.6%	inhibition at 0.01 µM [1, 14]: 42.2%; inhibition at 0.1 µM [1, 15]: 52.3%; inhibition at 1 µM [1, 16]: 54.4%
O=S(=O)(c1cccc(OC(F)(F)F)c1)N1CCC2(CC1)OCCN2S(=O)(=O)c1cccc(OC(F)(F)F)c1 [Compound C0005]	–	–	–	–	–	–	35.2%	44.5%	51.5%	105.4%	180.4%	166.4%	319.4%	85.1%	227.2%	–
CC(=O)c1ccc(S(=O)(=O)N2CCOC23CCN(C)CC3)cc1 [Compound C0093M]	–	–	–	–	–	–	44.8%	49.9%	53.5%	–	–	–	–	–	–	% DAMGO (0.1 μM) (mu opiate receptor (MOR); [17]): 81.3%; MOR agonist activity, percent [35S]GTPγS binding at the stated compound concentration (mu opiate receptor (MOR); [18]): 140.0%; MOR agonist activity, percent [35S]GTPγS binding at the stated compound concentration (mu opiate receptor (MOR); [19]): 44.0%; % DAMGO + BFNA (mu opiate receptor (MOR); [20]): 127.5%; % DAMGO (1 μM) (mu opiate receptor (MOR); [21]): 96.4%; MOR agonist activity, percent [35S]GTPγS binding at the stated compound concentration (mu opiate receptor (MOR); [22]): 211.8%
CC(=O)c1ccc(S(=O)(=O)N2CCC3(CC2)OCCN3S(=O)(=O)c2ccc(C(C)=O)cc2)cc1 [Compound C0011]	–	–	–	–	–	–	37.6%	41.4%	46%	126.8%	217.0%	19.0%	36.5%	114.3%	305.0%	% DAMGO (0.1 μM) (mu opiate receptor (MOR); [17]): 126.8%; MOR agonist activity, percent [35S]GTPγS binding at the stated compound concentration (mu opiate receptor (MOR); [18]): 217.0%; MOR agonist activity, percent [35S]GTPγS binding at the stated compound concentration (mu opiate receptor (MOR); [19]): 19.0%; % DAMGO + BFNA (mu opiate receptor (MOR); [20]): 36.5%; % DAMGO (1 μM) (mu opiate receptor (MOR); [21]): 114.3%; MOR agonist activity, percent [35S]GTPγS binding at the stated compound concentration (mu opiate receptor (MOR); [22]): 305.0%
CC1CN(CC(O)COc2ccc(Br)c(Cl)c2)CC(C)O1 (stereo not drawn) [Compound A0045]	143.9%	73.3%	274.2%	99.2%	134.2%	99.3%	–	–	–	–	–	–	–	–	–	inhibition at 0.01 µM [1, 14]: 28.1%; inhibition at 0.1 µM [1, 15]: 35%; inhibition at 1 µM [1, 16]: 37.8%
O=S(=O)(c1cccc2cccnc12)N1CCC2(CC1)OCCN2S(=O)(=O)c1cccc2cccnc12 [Compound C0143M]	–	–	–	–	–	–	45.3%	48.4%	57.8%	47.1%	81.0%	86.5%	94.7%	59.3%	193.3%	% DAMGO (0.1 μM) (mu opiate receptor (MOR); [17]): 47.1%; Concentration of FLNA-Binding Compound as Agonist 0.1 μM (mu opiate receptor (MOR); [18]): 81.0%; Concentration of FLNA-Binding Compound as Agonist 1 μM + BFNA (mu opiate receptor (MOR); [19]): 86.5%; % DAMGO + BFNA (mu opiate receptor (MOR); [20]): 94.7%; % DAMGO (1 μM) (mu opiate receptor (MOR); [21]): 59.3%; Concentration of FLNA-Binding Compound as Agonist 1 μM (mu opiate receptor (MOR); [22]): 193.3%
COc1c2c(cc3c1C(CC(=O)CCc1ccc(O)cc1)[N+](C)(C)CC3)OCO2 (stereo not drawn) [Compound B0028]	–	–	–	–	–	–	38.2%	42.8%	49.1%	–	–	–	–	–	–	% DAMGO (0.1 μM) (mu opiate receptor (MOR); [23]): 103.5%; MOR agonist activity, percent [35S]GTPγS binding at the stated compound concentration (mu opiate receptor (MOR); [24]): 199.1%; MOR agonist activity, percent [35S]GTPγS binding at the stated compound concentration (mu opiate receptor (MOR); [25]): 55.0%; % DAMGO + BFNA (mu opiate receptor (MOR); [26]): 125.3%; % DAMGO (1 μM) (mu opiate receptor (MOR); [27]): 131.0%; MOR agonist activity, percent [35S]GTPγS binding at the stated compound concentration (mu opiate receptor (MOR); [28]): 357.7%
COc1ccccc1CCC(=O)CC1c2c(cc3c(c2OC)OCO3)CC[N+]1(C)C (stereo not drawn) [Compound B0045]	–	–	–	–	–	–	63.2%	68.2%	73.9%	–	–	–	–	–	–	% DAMGO (0.1 μM) (mu opiate receptor (MOR); [23]): 82.6%; MOR agonist activity, percent [35S]GTPγS binding at the stated compound concentration (mu opiate receptor (MOR); [24]): 129.3%; MOR agonist activity, percent [35S]GTPγS binding at the stated compound concentration (mu opiate receptor (MOR); [25]): 83.8%; % DAMGO + BFNA (mu opiate receptor (MOR); [26]): 257.1%; % DAMGO (1 μM) (mu opiate receptor (MOR); [27]): 83.4%; MOR agonist activity, percent [35S]GTPγS binding at the stated compound concentration (mu opiate receptor (MOR); [28]): 193.1%
O=[N+]([O-])c1ccc(S(=O)(=O)N2CCC3(CC2)NCCCO3)cc1 [Compound C0045]	–	–	–	–	–	–	–	–	–	–	–	–	–	–	–	% DAMGO (0.1 μM) (mu opiate receptor (MOR); [17]): 88.3%; MOR agonist activity, percent [35S]GTPγS binding at the stated compound concentration (mu opiate receptor (MOR); [18]): 149.2%; MOR agonist activity, percent [35S]GTPγS binding at the stated compound concentration (mu opiate receptor (MOR); [19]): 105.3%; % DAMGO + BFNA (mu opiate receptor (MOR); [20]): 634.3%; % DAMGO (1 μM) (mu opiate receptor (MOR); [21]): 109.1%; MOR agonist activity, percent [35S]GTPγS binding at the stated compound concentration (mu opiate receptor (MOR); [22]): 238.8%; inhibition at 0.01 µM [1, 14]: 39.1%; inhibition at 0.1 µM [1, 15]: 48.9%; inhibition at 1 µM [1, 16]: 53.7%
Cc1ccccc1S(=O)(=O)N1CCC2(CC1)OCCN2S(=O)(=O)c1ccccc1C [Compound C0015]	–	–	–	–	–	–	31.2%	40.6%	45.5%	78.5%	138.7%	126.8%	193.0%	78.9%	204.7%	–
CC1CN(CC(O)COc2ccccc2C(C)C)CC(C)O1 (stereo not drawn) [Compound A0029]	173.8%	98.4%	206.5%	22.3%	84.8%	81.2%	–	–	–	–	–	–	–	–	–	inhibition at 0.01 µM [1, 14]: 44.4%; inhibition at 0.1 µM [1, 15]: 44.4%; inhibition at 1 µM [1, 16]: 50.8%
COc1ccc(OCC(O)CN2CC(C)OC(C)C2)cc1 (stereo not drawn) [Compound A0048]	233.7%	119.1%	302.9%	167.2%	226.3%	109.7%	38.5%	44%	46.9%	–	–	–	–	–	–	–
CC1CCC(C(C)C)C(OCC(O)CN2CCCCC2C)C1 (stereo not drawn) [Compound A0007]	102.0%	68.3%	221.9%	40.4%	152.5%	96.4%	39.2%	46.2%	52.9%	–	–	–	–	–	–	–
